Experimental data from article PMC6152131, “Pharmacokinetic Study of Biotransformation Products from an Anxiolytic Fraction of Tilia americana” (Molecules : A Journal of Synthetic Chemistry and Natural …, 2017).

Key:
[1] = Stability of flavonoids and biotransformation products in mouse plasma under different handling conditions; format: in vitro ADME, mice; details: for Accuracy Bias 0 h / Observed Conc. 0 h / Accuracy Bias 8 h / Observed Conc. 8 h / Accuracy Bias 24 h / Observed Conc. 24 h: room temperature (25 °C); for Observed Conc. 0 h / Observed Conc. 8 h / Observed Conc. 24 h / Observed Conc. Autosampler (4 °C; 8 h) / Observed Conc. Long-term (−70 °C; 1 month): n = 6; for Accuracy Bias Autosampler (4 °C; 8 h) / Accuracy Bias Long-term (−70°C; 1 month) / Observed Conc. Autosampler (4 °C; 8 h) / Observed Conc. Long-term (−70 °C; 1 month): storage stability
Method in brief: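 Mouse plasma QC samples containing the flavonoids and their biotransformation products were tested for stability across storage and handling conditions, including long-term, autosampler and bench-top tests. Samples were extracted with methanol, filtered, and analyzed by HPLC on an RP-18e column with acetonitrile–water (55:45) at 1 mL/min and detection at λ = 220 nm. Results were compared against fresh QC samples; stability required deviation below 15%.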

[2] = Plasma concentration after a single oral dose of the anxiolytic fraction (HPLC); format: in vivo, ICR mice; details: mouse, plasma, ICR mice, n = 10
Method in brief: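 Animals dosed orally with 200 mg/kg of active fraction; retro-orbital blood taken from separate groups of ten at 0–1440 min. Lyophilized plasma extracted in methanol and analysed by RP-18 HPLC with diode-array detection at 220 nm against a calibration curve; PK parameters from observed data, mean ± SD.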

[3] = Pharmacokinetic analysis, two-compartment model (PKSolver); format: in vivo, ICR mice; details: two-compartment model
Protocol: The data shown in Table 2 were applied to the program PKSolver. After a single oral administration of 200 mg/kg of the anxiolitic fraction of T. americana, the behavior of the concentration-time data allowed us to determine the main pharmacokinetic parameters under a two-compartment model (Table 3), and the same program provided the graphical behavior of the variables and the adjustment to the two-compartment model.
To evaluate the suitability of the assay for the pharmacokinetic studies, 200 mg/kg of the active fraction was orally administered to the animals. Ten animals were used in each group at different times (0, 5, 10, 15, 30, 60, 120, 240, 480, 720, and 1440 min). Pharmacokinetic calculations were performed using the observed data. All data was subsequently processed using the PKSolver add-in program for Microsoft Excel written in Visual Basic for Applications. All values obtained were expressed in mean ± standard deviation.
For the pharmacokinetic assay, the selection was made either from a one-compartment or a two-compartment model, with the use of both the Akaike information criterion (AIC) and the Schwarz criterion (SC). Using these two criteria, one can select which model is more suited to being adjusted, to the point where it reaches the lowest values of the AIC or SC criteria, which means that the chosen model is more parsimonious (less parameters required) and best fits the data (low error prediction).

[4] = high nominal conc. (7.00; 44.37; 4.50; 31.25 µg/mL)
[5] = low nominal conc. (1.75; 11.02; 1.12; 1.95 µg/mL)
[6] = medium nominal conc. (3.50; 22.18; 2.24; 7.81 µg/mL)
[7] = mouse, oral 200 mg/kg anxiolytic fraction, ICR mice plasma
[8] = oral 200 mg/kg anxiolytic fraction, ICR mice plasma
[9] = oral 200 mg/kg anxiolytic fraction, ICR mice plasma, n = 10

O=C(O)Cc1ccc(O)cc1 [p-HPAA, para-hydroxyphenylacetic acid]
Accuracy Bias 0 h ([1]; high nominal conc.): 1.64% | Observed Conc. 0 h ([1]; high nominal conc. (rutin 7.00; quercetin glucoside, quercitrin, tiliroside 44.37; kaempferol 4.50; m-HPAA, p-HPAA, DOPAC 31.25 µg/mL)): 31.76 ± 0.28 µg/mL | Accuracy Bias 0 h ([1]; low nominal conc.): 1.44% | Observed Conc. 0 h ([1]; low nominal conc. (rutin 1.75; quercetin glucoside, quercitrin, tiliroside 11.02; kaempferol 1.12; m-HPAA, p-HPAA, DOPAC 1.95 µg/mL)): 1.92 ± 0.02 µg/mL | Accuracy Bias 0 h ([1]; medium nominal conc.): 0.65% | Observed Conc. 0 h ([1]; medium nominal conc. (rutin 3.50; quercetin glucoside, quercitrin, tiliroside 22.18; kaempferol 2.24; m-HPAA, p-HPAA, DOPAC 7.81 µg/mL)): 7.86 ± 0.11 µg/mL | Accuracy Bias 8 h ([1]; high nominal conc.): 1.26% | Observed Conc. 8 h [1, 4]: 31.64 ± 0.28 µg/mL | Accuracy Bias 8 h ([1]; low nominal conc.): 1.40% | Observed Conc. 8 h [1, 5]: 1.92 ± 0.02 µg/mL | Accuracy Bias 8 h ([1]; medium nominal conc.): 2.05% | Observed Conc. 8 h [1, 6]: 7.94 ± 0.11 µg/mL | Accuracy Bias 24 h ([1]; high nominal conc.): 1.26% | Observed Conc. 24 h [1, 4]: 31.64 ± 0.31 µg/mL | Accuracy Bias 24 h ([1]; low nominal conc.): 0.85% | Observed Conc. 24 h [1, 5]: 1.93 ± 0.01 µg/mL | Accuracy Bias 24 h ([1]; medium nominal conc.): 1.01% | Observed Conc. 24 h [1, 6]: 7.89 ± 0.05 µg/mL | Accuracy Bias Autosampler (4 °C; 8 h) ([1]; high nominal conc.): 1.40% | Accuracy Bias Long-term (−70°C; 1 month) ([1]; high nominal conc.): 0.85% | Observed Conc. Autosampler (4 °C; 8 h) [1, 4]: 31.64 ± 0.28 µg/mL | Observed Conc. Long-term (−70 °C; 1 month) [1, 4]: 31.64 ± 0.28 µg/mL | Accuracy Bias Autosampler (4 °C; 8 h) ([1]; low nominal conc.): 1.26% | Accuracy Bias Long-term (−70°C; 1 month) ([1]; low nominal conc.): 1.26% | Observed Conc. Autosampler (4 °C; 8 h) [1, 5]: 1.93 ± 0.02 µg/mL | Observed Conc. Long-term (−70 °C; 1 month) [1, 5]: 1.92 ± 0.01 µg/mL | Accuracy Bias Autosampler (4 °C; 8 h) ([1]; medium nominal conc.): 2.05% | Accuracy Bias Long-term (−70°C; 1 month) ([1]; medium nominal conc.): 1.01% | Observed Conc. Autosampler (4 °C; 8 h) [1, 6]: 7.89 ± 0.11 µg/mL | Observed Conc. Long-term (−70 °C; 1 month) [1, 6]: 7.97 ± 0.05 µg/mL | concentration at 5 min ([2]; 5 min after single oral dose of 200 mg/kg of the anxiolytic fraction, ND = not detected): 5400 ± 360 ng/mL | concentration at 10 min ([2]; 10 min after single oral dose of 200 mg/kg of the anxiolytic fraction): 6710 ± 440 ng/mL | concentration at 15 min ([2]; 15 min after single oral dose of 200 mg/kg of the anxiolytic fraction): 6010 ± 330 ng/mL | concentration at 30 min ([2]; 30 min after single oral dose of 200 mg/kg of the anxiolytic fraction): 5380 ± 510 ng/mL | concentration at 60 min ([2]; 60 min after single oral dose of 200 mg/kg of the anxiolytic fraction): 5310 ± 540 ng/mL | concentration at 120 min ([2]; 120 min after single oral dose of 200 mg/kg of the anxiolytic fraction): 5290 ± 320 ng/mL | concentration at 240 min ([2]; 240 min after single oral dose of 200 mg/kg of the anxiolytic fraction): 5150 ± 230 ng/mL | concentration at 480 min ([2]; 480 min after single oral dose of 200 mg/kg of the anxiolytic fraction): 5080 ± 240 ng/mL | concentration at 720 min ([2]; 720 min after single oral dose of 200 mg/kg of the anxiolytic fraction): 4990 ± 350 ng/mL | concentration at 1440 min ([2]; 1440 min after single oral dose of 200 mg/kg of the anxiolytic fraction): 4910 ± 210 ng/mL | AUC(0-inf) [3, 7]: 183 µg·h/mL | Cmax [3, 7]: 6260 ng/mL | Tmax [3, 7]: 0.186 h | AUC(0-t) ([3]; mouse, oral 200 mg/kg anxiolytic fraction, ICR mice plasma, read-out: AUC0→1440 (converted)): 73.7 µg·h/mL | MRT ([3]; mouse, oral 200 mg/kg anxiolytic fraction, ICR mice plasma, read-out: MRT (mean residence time) (converted)): 47.2 h | k el ([3]; mouse, oral 200 mg/kg anxiolytic fraction, ICR mice plasma, read-out: k10 (apparent first-order elimination rate constant from the central compartment) (converted)): 1e-05 s⁻¹ | half-life ([3]; mouse, oral 200 mg/kg anxiolytic fraction, ICR mice plasma, read-out: t1/2β): 33.2 h | CL/F (apparent clearance) [3, 8]: 0.018 (mg/Kg)/(μg/mL)/min | V/F (apparent volume of distribution) [3, 8]: 29.46 (mg/Kg)/(µg/mL) | k12 (transfer rate constant central to peripheral compartment) [3, 8]: 0.007 min⁻¹ | k21 (transfer rate constant peripheral to central compartment) [3, 8]: 0.009 min⁻¹ | ka (apparent first-order absorption rate constant) [3, 8]: 0.36 min⁻¹ | t1/2ka (absorption half time) [3, 8]: 1.92 min | t1/2α [3, 8]: 0.7042 h | α [3, 8]: 0.02 min⁻¹ | β [3, 8]: 0.0003 min⁻¹ | A (plasma concentration coefficient, central compartment) [3, 9]: 3.19 µg/mL | B (plasma concentration coefficient, peripheral compartment) [3, 9]: 3.75 µg/mL | index: relation between rate constants of k12 with respect to k21 [3]: 0.77
